Laboratory results published in patent US11779602B2, “Methods of use for CAR T cells” (ENDOCYTE, INC., priority 2018, dated 2023).

How the values were obtained:
MDA-MB-231 tumor = assay: Kinetics of CAR-T cell expansion and tumor uptake in MDA-MB-231 tumor bearing mice; assay type: in vivo
Experimental: When the tumor sizes averaged at ˜350±60 mm^3 on day 2, up to […] of EC17 at 500 nmol/kg were given on days 2, 9, 16, 23, and 30. For ex-vivo analysis, 3 animals were taken before the next EC17 dose on days 9, 16, 23, and 30 for a total of 4 collections. For comparison, the same EC17 dose was given to 3 CAR-T mice that had ˜4.4× larger tumor sizes on day 2 (˜1555±79 mm^3). For each collection, fresh blood and tumor samples (if available) were analyzed for the presence of human CD3ε+EGFRt+ CAR-T cells by flow cytometry.
The dynamic interplay between EC17 and CAR-T cells in vivo was further analyzed using MDA-MB-231 tumor model, which was previously found to be among the highest FR expressing tumors at 103±15 pmol/mg membrane protein using a ^3H-FA-based radioligand binding assay. […] Seven days following a single EC17 dose (i.e., study day 9), human CD3ε+EGFRt+ CAR-T cells were detected in the blood of mice, with elevated numbers circulating in mice bearing larger tumors (FIGS. 62B-E). […]
For CAR-T cell analysis in the circulation, plasma was removed from a predetermined volume of whole blood collected into tubes containing ethylenediaminetetraacetic acid anticoagulant. […] A minimum of 20,000 propidium iodide negative live cell events were collected on the Gallios flow cytometer and analyzed with the Kaluza software, version 2.1 (Beckman Coulter, Brea, Calif.). […]

HOS-FRα tumor = assay: CRS toxicity and sodium fluorescein rescue in HOS-FRα tumor-bearing mice; assay type: in vivo
Experimental: All animal care and use were performed according to NIH guidelines and in compliance with protocols approved by the Purdue University Animal Use and Care Committee. Female 4 to 5-week-old NOD/SCID gamma (NSG™) mice (stock number: 005557) were purchased from The Jackson Laboratory (Bar Harbor, Me.). Unless specifically indicated, all animals were maintained on a FA-deficient diet (TestDiet, St. Louis, Mo.) upon arrival and throughout the study. To establish subcutaneous xenografts, MDA-MB-231 and HOS-FRα were implanted in the right flank region at 2.5×10^6 and 1×10^6 cells per animal, respectively. For intravenous xenografts, THP1-FRβ cells were inoculated at 5×10^6 cells per animal. Subcutaneous tumors were measured 2-3 times per week with a caliper and calculated using the ellipsoidal formula (length×width^2)/2. […] All animal doses (CAR-T cells, EC17, sodium fluorescein) were given intravenously.
Depending on the CAR-T cell dose and how EC17 is administered, tumor-bearing mice receiving FITC-specific CAR-T cells can experience severe CRS and varying degrees of body weight loss. Therefore, a CRS grading system (0-5 scale) was developed to empirically assess CRS toxicity from animals' gross morphology and social behavior to allow for better timing of CRS rescue. While grades 0 and 5 indicated normal (no CRS) or death (due to severe CRS), respectively, grades 1, 2, and 3-4 were considered mild, light-to-moderate, and severe CRS (FIG. 57A). In addition, all EC17 doses were intentionally given towards the end of any given day to allow potential CRS symptoms to develop overnight. On the days immediately following each EC17 dose, animals were scored and rescue agents such as sodium fluorescein, folic acid and leucovorin were used to mitigate CRS toxicity. In this particular instance, a batch of E2 CAR-T cells with a high EGFRt+CD4/CD8 ratio (˜93:7) was given to HOS-FRα tumor-bearing mice at a mixture of ˜2.5 million CD8 and ˜33 million CD4 on day 0 (FIG. 57B). […]

`NC1=NC2N=CC(CNc3ccc(C(=O)N[C@@H](CCC(=O)NCCNC(=S)Nc4ccc(-c5c6ccc(=O)cc-6oc6cc(O)ccc56)c(C(=O)O)c4)C(=O)O)cc3)=NC2C(=O)N1` (stereo partly shown) [EC17, FA-(γ)-ethylenediamine-FITC] was tested, and the “onset of tumor response” value (MDA-MB-231 tumor; EC17 500 nmol/kg weekly, ~4.8 million E2-CAR-T cells) was “started to respond after the second EC17 dose”, the body weight loss (MDA-MB-231 tumor; after EC17 administration, especially after the third dose) was “mild body weight loss” and the “CRS grade (0-5 scale)” value (HOS-FRα tumor; day 13, after EC17 500 nmol/kg on day 12) was 3 grade. For the same compound, the “CRS grade (0-5 scale)” value (HOS-FRα tumor; days 4 and 11, after EC17 500 and 100 nmol/kg on days 3 and 10, ~35 million CAR-T cells) was 1-2 grade.
